The results in this text go back to PMC5379127, “Plackett-Burman Design for rGILCC1 Laccase Activity Enhancement in Pichia pastoris: Concentrated Enzyme Kinetic Characterization” (Enzyme Research, 2017).

The structures appear in SMILES notation.

In general, Km refers to the substrate concentration at which the rate is half of its maximum.

The assay has as its system T1, rGILCC1 laccase (GlLCC1).
T1 construct: previously optimized synthetic gene in pGAPZalphaA (pGAPZαA-LacGluc-Stop, also pGAPZαA-GlucPost-Stop, clone 1), secreted by Pichia pastoris X33; concentrated culture supernatant (10 kDa membrane), not purified
Kind of assay: spectrophotometric ABTS oxidation at […] nm, Hanes-Woolf. The settings on record: concentrated culture supernatant, not pure enzyme; 600 mM sodium acetate buffer, pH 4.5, 25°C; read-out: apparent Km. It counts as biochemical, Ganoderma lucidum.

For the compound `CCn1c(=NN=c2sc3cc(S(=O)(=O)O)ccc3n2CC)sc2cc(S(=O)(=O)O)ccc21` [ABTS, 2,20-azino-bis(3-ethylbenzothiazoline-6-sulphonic acid)], the Michaelis constant (Km) came to 53.6 µM.
